Source: US8367659B2, “Oxazinyl isoflavonoid compounds, medicaments and use” (Marshall Edwards, Inc., priority 2007, dated 2013)
Blank lines part the entries; values can stand above or below the compound they belong to.

Experiments:
[1] = Free radical scavenging with DPPH; conditions: DPPH, 20 minutes, absorbance 517 nm; Table 4; read-out: Free radical scavenging ability EC50
Protocol: The antioxidant (free radical trapping) activity of test compounds was assessed using the stable free radical compound 2,2-diphenyl-1-picrylhydrazyl (DPPH). A stock solution of DPPH was prepared at a concentration of […] in ethanol and mixed for 10 minutes prior to use. Test compounds at a concentration of 100 μM were reacted with DPPH for, 20 minutes, alter which time the absorbance at 517 nm was determined. Initial screening of was done at 100 μM. The change in absorbance at 517 nm was compared to a reagent blank (DPPH with ethanol alone). […] The IC50 values were estimated as the concentration of test compound that caused a 0.6 change in absorbance (with 1.2 absorbance units representing total scavenging of the DPPH radical).
The antioxidant (free radical trapping) activity of test compounds was assessed using the stable free radical compound 2,2-diphenyl-1-picrylhydrazyl (DPPH). A stock solution of DPPH was prepared […] in ethanol and mixed for 10 minutes prior to use. Initial screening of test compound at a concentration of 100 μM was reacted with DPPH for 20 minutes, after which time the absorbance at 517 nm was determined. The change in absorbance was compared to a reagent blank (DPPH with ethanol alone). […] The IC50 value was estimated as the concentration of test compound that causes a 0.6 change in absorbance (with 1.2 absorbance units representing total scavenging of the DPPH radical).

[2] = system: human umbilical vein smooth muscle cells (HUVSMC); assay: Proliferation of human umbilical vein smooth muscle cells (MTT); type: cell-based; conditions: 10 μM; 10% FCS, 5 days; FIG. 8
Protocol: The effect of test compounds on human umbilical vein smooth muscle cells (HUVSMC) was examined. Cells were seeded into 96 well plates at a low seeding rate of 1.6×10^3 cells per well, and allowed to attach for 24 hours. The cells were then washed twice with medium without FCS and incubated in medium without FCS for 20 hours to serum starve them. Analogue was prepared in medium without FCS at 20 μM and added to the plates and incubated for one hour. Final analogue concentration was therefore 10 μM. The cells were then stimulated by adding medium +20% FCS, to give a final FCS concentration of 10%. The cells were incubated until the control cells i.e. those with FCS and no compound, were just confluent (5 days). An MTT assay was performed, and difference in absorbance in analogue treated cells from the control was calculated using the formula: test/control*100−100. Results
The effect of test compounds on human umbilical vein smooth muscle cells (HUVSMC), was examined. Cells, tissue explants from a neonate (HRI—passage 2), were seeded into 96 well plates at 1×10^3 cells per well, and allowed to attach for 24 hours. They were then washed twice and incubated in medium without foetal calf serum (FCS) for 24-48 hours to serum-starve them. Test compounds were prepared in medium without FCS and added to the plates and incubated for one hour. Medium with FCS was added to give a final concentration of 10% and the plates incubated for 4-5 days until the controls were just confluent.

[3] = biological target: T1, GAL4-PPARγ fusion protein (Homo sapiens, UniProt P37231); assay: PPARγ activity in transfected HEK293 cells (beta-lactamase reporter); type: cell-based; conditions: FIG. 13: 1 μM
T1 construct: host or cells: HEK293 (human embryonic kidney), stably transfected
T1 sequence (P37231 238-503 limits assumed): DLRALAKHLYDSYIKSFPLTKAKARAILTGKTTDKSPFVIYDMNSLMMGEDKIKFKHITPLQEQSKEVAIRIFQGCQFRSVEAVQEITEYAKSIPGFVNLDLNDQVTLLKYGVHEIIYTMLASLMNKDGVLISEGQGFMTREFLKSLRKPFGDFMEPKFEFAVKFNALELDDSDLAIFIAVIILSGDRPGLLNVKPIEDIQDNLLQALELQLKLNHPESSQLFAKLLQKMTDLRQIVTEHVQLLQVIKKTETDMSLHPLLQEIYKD
T1 sequence (P04386 1-147 partner limits assumed): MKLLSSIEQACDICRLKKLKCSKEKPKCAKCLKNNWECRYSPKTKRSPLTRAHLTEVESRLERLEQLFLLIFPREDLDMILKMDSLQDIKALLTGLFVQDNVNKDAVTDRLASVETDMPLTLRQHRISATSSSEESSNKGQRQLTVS
Protocol: Human HEK293 cells, stably transfected with the PPARγ ligand binding domain fused with the DNA binding domain of the GAL4 protein (GAL4-PPARγ fusion protein), produce beta-lactamase when incubated with PPARγ ligands. Transfected human kidney embryonic cells (Invitrogen Inc., Carlsbad, Calif.) were seeded onto matrigel in 96-well plates and allowed to attach overnight. The following day, vehicle alone (DMSO) or test compound at 1, 5 and 10 μM was added at varying concentrations to cells and incubated for 16-18 hours. Cells were then loaded with a FRET-based fluorescent substrate to assess beta-lactamase activity. Cells were protected from light, and incubated at room temperature for 2 h. Plates were read on a fluorescence plate reader with an excitation wavelength of 409 nm and emission wavelengths of 460 nm and 530 nm. Results were expressed as a ratio of these two wavelengths after the background (cell-free control wells) had been subtracted. PPARγ activity was thus determined by measuring beta-lactamase activity as assessed by a fluorescent product to substrate ratio.

[4] = system: PGE2 synthesis in RAW 264.7 murine macrophages; assay: LPS-induced PGE2 synthesis in RAW 264.7 murine macrophages; type: cell-based, mouse; conditions: 10 μM; relative to vehicle alone; FIG. 3
Protocol: (§1) The mouse macrophage cell line RAW 264.7 was cultured in DMEM supplemented with foetal calf serum (FCS), […] glutamine and 50 U/ml penicillin/streptomycin. Cells were treated with either test compound (in 0.025% DMSO) or vehicle alone, and added one hour before 50 ng/ml LPS. After incubation for 24 h, culture media was collected for PGE2 or TXB2 measurement by ELISA (Cayman Chemical), and TNFα measurement using an ELISA (Becton Dickinson). Test compounds were examined a concentration of 10 μM. […] Consequently, to assess the effect of test compounds on various analytes, cell viability was taken into consideration with the use of the formula: Actual effect of test compound=measured effect−(effect on cell viability×measured effect)

[5] = system: TXB2 synthesis in RAW 264.7 murine macrophages; assay: LPS-induced TXB2 synthesis in RAW 264.7 murine macrophages; type: cell-based, mouse; conditions: 10 μM; relative to vehicle alone; FIG. 4
Protocol: as §1

cancer cell lines = assay: Anti-cancer activity, cancer cell lines tested as a group (MTT); type: cell-based
HPAC = assay: Anti-cancer activity, HPAC pancreatic cancer cells (MTT); type: cell-based; conditions: Homo sapiens, 120 h, 5 days
MM200 = assay: Anti-cancer activity, MM200 melanoma cells (MTT); type: cell-based; conditions: 120 h; 5 days, MTT
CP70 = assay: Anti-cancer activity, CP70 ovarian cancer cells (MTT); type: cell-based; conditions: 120 h, 5 days
[6] = system: NO synthesis in RAW 264.7 murine macrophages; assay: LPS-induced NO synthesis in RAW 264.7 murine macrophages (Griess); type: cell-based, mouse; conditions: 10 μM; relative to vehicle alone; FIG. 6
Protocol: as §1, with “Dickinson). Nitrite concentration is a quantitative indicator of NO production and was determined by the Griess Reaction. Briefly, 100 μL of Griess reagent was added to 50 μL of each supernatant in duplicate. The absorbance at 550 nm was measured (Molecular Devices, SpectraMax 250 microplate spectrophotometer, CA, USA), and nitrite concentrations were determined against a standard curve of sodium nitrite. The percentage nitrite inhibition was calculated as: [100−(nitrite concentration of sample/nitrite of vehicle control LPS cells)×100]. Results” for “Dickinson).”

Compound: COc1ccc(C2=Cc3cc4c(c(C)c3OC2)OCN(Cc2ccccc2)C4)cc1OC [Compound 13, 3-Benzyl-7-(3,4-dimethoxyphenyl)-10-methyl-2,3,4,8-tetrahydrochromeno[6,7-e][1,3]oxazine]
EC50 [1]: 41 µM

Compound: Cc1ccc(N2COc3cc4c(cc3C2)C=C(c2ccc(O)cc2)CO4)cc1 [Compound 18, 4-(3-p-Tolyl-2,3,4,8-tetrahydrochromeno[6,7-e][1,3]oxazin-7-yl)phenol]
EC50 [1]: 29 µM | effect on proliferation of HUVSMCs induced by FCS [2]: significantly inhibited the proliferation | PPARγ activation, increase in beta-lactamase activity over media only control [3]: PPARγ agonist activity

Compound: COc1ccc(CN2COc3cc4c(cc3C2)C=C(c2ccc(OC)c(OC)c2)CO4)cc1 [Compound 9, 7-(3,4-Dimethoxyphenyl)-3-(4-methoxybenzyl)-2,3,4,8-tetrahydrochromeno[6,7-e][1,3]oxazine]
mean change of LPS-induced PGE2 synthesis [4]: greatest inhibition | mean change of LPS-induced TXB2 synthesis [5]: greatest inhibition | EC50 [1]: 36 µM | toxicity against cancer cells (cancer cell lines; where tested): moderate toxicity

Compound: COCCCN1COc2cc3c(cc2C1)C=C(c1ccc(O)cc1)CO3 [Compound 16, 4-(3-(3-Methoxypropyl)-2,3,4,8-tetrahydrochromeno[6,7-e][1,3]oxazin-7-yl)phenol]
EC50 [1]: 22 µM | IC50 (HPAC): 3.88 µM | IC50 (MM200): 1.8 µM | IC50 (cancer cell lines; read-out: most potent activity against the respective cell lines tested): 1000 to 5000 nM

Compound: Oc1ccc(C2=Cc3cc4c(cc3OC2)OCN(Cc2ccc(Cl)cc2)C4)cc1 [Compound 15, 4-(3-(4-Chlorobenzyl)-2,3,4,8-tetrahydrochromeno[6,7-e][1,3]oxazin-7-yl)phenol]
EC50 [1]: 22.5 µM | IC50 (CP70): 4.41 µM | IC50 (HPAC): 7.89 µM | IC50 (MM200): 9.4 ± 1.5 µM | activity against CP70, HPAC and MM200 cell lines (cancer cell lines; CP70, HPAC and MM200): active

Compound: COc1ccc(C2=Cc3cc4c(cc3OC2)OCN(c2ccccc2)C4)cc1OC [Compound 12, 7-(3,4-Dimethoxyphenyl)-3-phenyl-2,3,4,8-tetrahydrochromeno[6,7-e][1,3]oxazine]
mean change of LPS-induced PGE2 synthesis [4]: greatest inhibition

Compound: Oc1ccc(C2=Cc3cc4c(cc3OC2)OCN(c2ccc(O)cc2)C4)cc1 [Compound 8, 4,4′-(Chromeno[6,7-e][1,3]oxazine-3,7 (2H,4H,8H)-diyl)diphenol]
mean change of LPS-induced TXB2 synthesis [5]: greatest inhibition | EC50 [1]: 16 µM | effect on proliferation of HUVSMCs induced by FCS [2]: significantly inhibited the proliferation

Compound: CCCN1COc2c(cc3c(c2C)OCC(c2ccc(OC)c(OC)c2)=C3)C1 [Compound 14, 7-(3,4-Dimethoxyphenyl)-10-methyl-3-propyl-2,3,4,8-tetrahydrochromeno[6,7-e][1,3]oxazine]
mean change of LPS-induced PGE2 synthesis [4]: greatest inhibition | mean change of LPS-induced TXB2 synthesis [5]: greatest inhibition | mean change of LPS-induced NO synthesis [6]: greatest inhibition

Continued, in another order:

EC50 [1]: 26 µM
Compound: Cc1c2c(cc3c1OCN(c1ccc(O)cc1)C3)C=C(c1cccc(O)c1)CO2 [Compound 26, 3,4′-(10-Methyl-chromeno[6,7-e][1,3]oxazine-3,7(2H,4H,8H)-diyl)diphenol]

EC50 [1]: 23 µM
Compound: CCCN1COc2c(cc3c(c2Br)OCC(c2ccc(O)cc2)=C3)C1 [Compound 25, 4-(10-Bromo-3-propyl-2,3,4,8-tetrahydrochromeno[6,7-e][1,3]oxazin-7-yl)phenol]

EC50 [1]: 44 µM
Compound: N#Cc1ccc(N2COc3cc4c(cc3C2)C=C(c2cccc(O)c2)CO4)cc1 [Compound 21, 4-(7-(3-Hydroxyphenyl)chromeno[6,7-e][1,3]oxazin-3(2H,4H,8H)-yl)benzonitrile]

EC50 [1]: 38 µM | PPARγ activation, increase in beta-lactamase activity over media only control [3]: PPARγ agonist activity
Compound: Cc1ccc(N2COc3cc4c(cc3C2)C=C(c2cccc(O)c2)CO4)cc1 [Compound 20, 3-(3-p-Tolyl-2,3,4,8-tetrahydrochromeno[6,7-e][1,3]oxazin-7-yl)phenol]
effect on proliferation of HUVSMCs induced by FCS [2]: significantly inhibited the proliferation

PPARγ activation, increase in beta-lactamase activity over media only control [3]: PPARγ agonist activity
Compound: CC(C)(C)c1ccc(CN2COc3cc4c(cc3C2)C=C(c2ccc(O)cc2)CO4)cc1 [Compound 29, 4-(3-(4-tert-Butylbenzyl)-2,3,4,8-tetrahydrochromeno[6,7-e][1,3]oxazin-7-yl)phenol]

EC50 [1]: 27 µM | PPARγ activation, increase in beta-lactamase activity over media only control [3]: PPARγ agonist activity
Compound: O=[N+]([O-])c1cccc(N2COc3cc4c(cc3C2)C=C(c2ccc(O)cc2)CO4)c1 [Compound 23, 4-(3-(3-Nitrophenyl)-2,3,4,8-tetrahydrochromeno[6,7-e][1,3]oxazin-7-yl)phenol]
mean change of LPS-induced PGE2 synthesis [4]: greatest inhibition | mean change of LPS-induced TXB2 synthesis [5]: greatest inhibition | mean change of LPS-induced NO synthesis [6]: greatest inhibition

EC50 [1]: 41 µM
Compound: COc1ccc(C2=Cc3cc4c(c(C)c3OC2)OCN(c2ccc(C)cc2)C4)cc1OC [Compound 19, 7-(3,4-Dimethoxyphenyl)-10-methyl-3-p-tolyl-2,3,4,8-tetrahydrochromeno[6,7-e][1,3]oxazine]
mean change of LPS-induced NO synthesis [6]: greatest inhibition | effect on proliferation of HUVSMCs induced by FCS [2]: significantly inhibited the proliferation
